Test results as given in US6562802B2, “Medical composition and uses thereof” (Noviscens AB, priority 1996, dated 2003).

What was measured:
UV B radiation = assay: biological light protection factor against UV B radiation, erythema score on skin of volunteers; type: in vivo, human; details: 5.0% (w/w) in petrolatum, light exposure for 16 and 32 seconds, two volunteers
Procedure: The biological light protection factor of the sunscreen formulation was determined at two concentrations of the active agent, P-PABA. The two formulations were prepared and tested at a concentration of 5.0% and 10% (w/w). For comparison, one control sunscreen agent was also studied. The UV B protection agent, ethylhexyl-4-dimethylaminobenzoic acid (EHD-PABA) was prepared at a concentration of 5.0% (w/w) in petrolatum. The test was performed on the skin of two volunteers, under standardized conditions by application of 0.1 ml of the formulation per 100 cm^2 of skin area on their backs.
An Osram Ultravitalux lamp was used as light source. The light protection factor was determined and compared to vehicle and untreated skin after light exposure on cylindrical (1.0 cm i.d.) skin areas for 16 and 32 seconds. The results were evaluated from intensity of the erythema score (FIG. 8; A) untreated control, b) 10% P-PABA, c) 5% P-PABA, D) vehicle, and E) EHD-PABA. Light exposure as indicated on each skin area for 16 seconds (left) and 32 seconds (right)). The biological protection against UV B radiation obtained by the UV B standard EHD-PABA absorber was almost similar to the protection by the polymeric P-PABA derivative.

[1] = sunscreen index according to Kumler (UV absorbing characteristics); type: physicochemical

Compound	protection against UV B radiation (erythema score) (UV B radiation)	Sunscreen index [1]
CCCCC(CC)COC(=O)c1ccc(N(C)C)cc1 (stereo not shown) [EHD-PABA, ethylhexyl-4-dimethylaminobenzoic acid]	insufficient at 32 seconds in one of the volunteers	
Nc1ccc(C(=O)O)cc1 [p-aminobenzoic acid (reference), p-aminobenzoic acid]		7.4
PE-N-aminobenzoic acid [P-PABA]	complete	6.2
